Each block holds one compound with its values, some of them ahead of it.
What was measured:
[1] = test system: Giant Foxtail (Setaria faberi); assay: Preemergence herbicidal activity, soil spray; assay type: in vivo; conditions: Setaria faberi, pre-emergence, 504 h, Table 5, visual score after 3 weeks, read-out: Pre-emergent % control SETFA; for pest or weed control at 140 ppm: rate 140 ppm; for pest or weed control at 560 ppm: rate 560 ppm
How it was run: (§1)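 Preemergence soil application onto freshly seeded pots. Carrier: 99.9:0.1 water:Tween 155 after acetone/DMSO solubilisation. Greenhouse, ~15 hr photoperiod, supplemental metal halide lighting, regular nutrients and top watering.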

[2] = test system: Lambsquarter (Chenopodium album); assay: Preemergence herbicidal activity, soil spray; assay type: in vivo; conditions: Chenopodium album, pre-emergence, 504 h, Table 5, visual score after 3 weeks, read-out: Pre-emergent % control CHEAL; for pest or weed control at 140 ppm: rate 140 ppm; for pest or weed control at 560 ppm: rate 560 ppm, 100 complete kill or no germination
How it was run: as §1

[3] = test system: Crabgrass(large) (Digitaria sanguinalis); assay: Preemergence herbicidal activity, soil spray; assay type: in vivo; conditions: Digitaria sanguinalis, pre-emergence, 504 h, Table 5, visual score after 3 weeks, read-out: Pre-emergent % control DIGSA; for pest or weed control at 140 ppm: rate 140 ppm; for pest or weed control at 560 ppm: rate 560 ppm
How it was run: as §1

[4] = test system: Pigweed (redroot) (Amaranthus retroflexus); assay: Preemergence herbicidal activity, soil spray; assay type: in vivo; conditions: Amaranthus retroflexus, pre-emergence, 504 h, Table 5, visual score after 3 weeks, read-out: Pre-emergent % control AMARE; for pest or weed control at 140 ppm: rate 140 ppm; for pest or weed control at 560 ppm: rate 560 ppm
How it was run: as §1

[5] = test system: Yellow nutsedge (Cyperus esculentus); assay: Postemergence herbicidal activity, greenhouse spray; assay type: in vivo; conditions: Cyperus, post-emergence, 336 h, visual score after 2 weeks, read-out: Post-emergent % control CYPES; for pest or weed control at 500 ppm / pest or weed control at 250 ppm: Table 1; for pest or weed control at 500 ppm: rate 500 ppm; for pest or weed control at 250 ppm: rate 250 ppm; for pest or weed control at 125 ppm: Table 2, rate 125 ppm
How it was run: (§2)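 Test compounds, serially diluted into an aqueous acetone–isopropanol–DMSO vehicle with crop oil concentrate and Triton X-155, were atomizer-sprayed over plants at the 1–2 true leaf stage. Plants grew 7–21 days beforehand under ~15 h light; sub-irrigation followed treatment, with vehicle-sprayed controls.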

[6] = test system: Lambsquarter (Chenopodium album); assay: as above; assay type: in vivo; conditions: Chenopodium album, post-emergence, 336 h, visual score after 2 weeks, read-out: Post-emergent % control CHEAL; for pest or weed control at 500 ppm / pest or weed control at 250 ppm: Table 1; for pest or weed control at 500 ppm: rate 500 ppm; for pest or weed control at 250 ppm: rate 250 ppm; for pest or weed control at 125 ppm: Table 2, rate 125 ppm
How it was run: as §2

[7] = test system: Barnyardgrass (Echinochloa crus-galli); assay: as above; assay type: in vivo; conditions: Echinochloa crus-galli, post-emergence, 336 h, visual score after 2 weeks, read-out: Post-emergent % control ECHCG; for pest or weed control at 500 ppm / pest or weed control at 250 ppm: Table 1; for pest or weed control at 500 ppm: rate 500 ppm; for pest or weed control at 250 ppm: rate 250 ppm; for pest or weed control at 125 ppm: Table 2, rate 125 ppm
How it was run: as §2

[8] = test system: Cocklebur (Xanthium strumarium); assay: as above; assay type: in vivo; conditions: Xanthium strumarium, post-emergence, 336 h, visual score after 2 weeks, read-out: Post-emergent % control XANST; for pest or weed control at 500 ppm / pest or weed control at 250 ppm: Table 1; for pest or weed control at 500 ppm: rate 500 ppm, 0 no injury, 100 complete kill; for pest or weed control at 250 ppm: rate 250 ppm; for pest or weed control at 125 ppm: Table 2, rate 125 ppm
How it was run: as §2

SMILES: Cc1ccc(-c2cc(N)c(Cl)c(C(=O)O)n2)c(F)c1 [Compound 158, 4-Amino-3-chloro-6-(2-fluoro-4-methylphenyl)pyridine-2-carboxylic acid]
melting point: 187 to 189 °C
pest or weed control at 140 ppm [1]: 100%
pest or weed control at 140 ppm [2]: 100%
pest or weed control at 140 ppm [3]: 98%
pest or weed control at 140 ppm [4]: 100%
pest or weed control at 500 ppm [5]: 70%
pest or weed control at 500 ppm [6]: 100%
pest or weed control at 500 ppm [7]: 95%
pest or weed control at 500 ppm [8]: 100%

SMILES: Cc1ccc(-c2nc(C(=O)O)c(Cl)c(N)c2F)cc1 [Compound 163, 4-Amino-3-chloro-5-fluoro-6-(4-methylphenyl)pyridine-2-carboxylic acid]
melting point: 145 to 148 °C (dec.)
pest or weed control at 140 ppm [1]: 95%
pest or weed control at 140 ppm [2]: 100%
pest or weed control at 140 ppm [3]: 100%
pest or weed control at 140 ppm [4]: 98%
pest or weed control at 250 ppm [5]: 70%
pest or weed control at 125 ppm [5]: 70%
pest or weed control at 250 ppm [6]: 95%
pest or weed control at 125 ppm [6]: 90%
pest or weed control at 250 ppm [7]: 70%
pest or weed control at 125 ppm [7]: 70%
pest or weed control at 250 ppm [8]: 100%
pest or weed control at 125 ppm [8]: 100%

SMILES: Nc1cc(-c2ccc(Cl)cc2F)nc(C(=O)O)c1Cl [Compound 168, 4-Amino-3-chloro-6-(4-chloro-2-fluorophenyl)pyridine-2-carboxylic acid]
melting point: 162 to 163 °C
pest or weed control at 140 ppm [1]: 100%
pest or weed control at 140 ppm [2]: 100%
pest or weed control at 140 ppm [3]: 100%
pest or weed control at 140 ppm [4]: 100%
pest or weed control at 500 ppm [5]: 90%
pest or weed control at 500 ppm [6]: 100%
pest or weed control at 500 ppm [7]: 85%
pest or weed control at 500 ppm [8]: 100%

SMILES: CCc1ccc(-c2cc(N)c(Cl)c(C(=O)O)n2)cc1 [Compound 175, 4-Amino-3-chloro-6-(4-ethylphenyl)pyridine-2-carboxylic acid]
melting point: 152 °C
pest or weed control at 140 ppm [1]: 95%
pest or weed control at 140 ppm [2]: 100%
pest or weed control at 140 ppm [3]: 100%
pest or weed control at 140 ppm [4]: 95%
pest or weed control at 500 ppm [5]: 0%
pest or weed control at 500 ppm [6]: 99%
pest or weed control at 500 ppm [7]: 80%
pest or weed control at 500 ppm [8]: 100%

SMILES: Nc1cc(-c2ccc(Cl)c(F)c2)nc(C(=O)O)c1Cl [Compound 181, 4-Amino-3-chloro-6-(4-chloro-3-fluorophenyl)pyridine-2-carboxylic acid]
melting point: 156 to 157 °C
pest or weed control at 140 ppm [1]: 100%
pest or weed control at 140 ppm [2]: 100%
pest or weed control at 140 ppm [3]: 100%
pest or weed control at 140 ppm [4]: 100%
pest or weed control at 500 ppm [5]: 100%
pest or weed control at 125 ppm [5]: 85%
pest or weed control at 500 ppm [6]: 100%
pest or weed control at 125 ppm [6]: 100%
pest or weed control at 500 ppm [7]: 100%
pest or weed control at 125 ppm [7]: 70%
pest or weed control at 500 ppm [8]: 100%
pest or weed control at 125 ppm [8]: 100%

Now from value to compound, other results behind:

melting point: 154 to 155 °C
SMILES: Nc1c(F)c(-c2ccc(Cl)cc2F)nc(C(=O)O)c1Cl [Compound 189, 4-Amino-3-chloro-5-fluoro-6-(4-chloro-2-fluorophenyl)pyridine-2-carboxylic acid]
pest or weed control at 140 ppm [1]: 100%
pest or weed control at 140 ppm [2]: 100%
pest or weed control at 140 ppm [3]: 100%
pest or weed control at 140 ppm [4]: 100%
pest or weed control at 125 ppm [5]: 90%
pest or weed control at 125 ppm [6]: 90%
pest or weed control at 125 ppm [7]: 90%
pest or weed control at 125 ppm [8]: 90%

melting point: 169 °C
SMILES: Nc1c(F)c(-c2ccc3c(c2)OCO3)nc(C(=O)O)c1Cl [Compound 196, 4-Amino-3-chloro-5-fluoro-6-(3,4-methylenedioxyphenyl)pyridine-2-carboxylic acid]
pest or weed control at 560 ppm [1]: 100%
pest or weed control at 560 ppm [2]: 100%
pest or weed control at 560 ppm [3]: 100%
pest or weed control at 560 ppm [4]: 100%
pest or weed control at 250 ppm [5]: 98%
pest or weed control at 125 ppm [5]: 100%
pest or weed control at 250 ppm [6]: 100%
pest or weed control at 125 ppm [6]: 100%
pest or weed control at 250 ppm [7]: 100%
pest or weed control at 125 ppm [7]: 100%
pest or weed control at 250 ppm [8]: 100%
pest or weed control at 125 ppm [8]: 100%

melting point: 171 °C
SMILES: Nc1c(F)c(-c2ccc3c(c2)CCO3)nc(C(=O)O)c1Cl [Compound 197, 4-Amino-3-chloro-5-fluoro-6-(2,3-dihydro-5-benzofuranyl)pyridine-2-carboxylic acid]
pest or weed control at 560 ppm [1]: 100%
pest or weed control at 560 ppm [2]: 100%
pest or weed control at 560 ppm [3]: 100%
pest or weed control at 560 ppm [4]: 100%
pest or weed control at 250 ppm [5]: 95%
pest or weed control at 125 ppm [5]: 85%
pest or weed control at 250 ppm [6]: 100%
pest or weed control at 125 ppm [6]: 100%
pest or weed control at 250 ppm [7]: 90%
pest or weed control at 125 ppm [7]: 85%
pest or weed control at 250 ppm [8]: 100%
pest or weed control at 125 ppm [8]: 100%

melting point: 164 to 165 °C
SMILES: Nc1c(Cl)c(C(=O)O)nc(-c2ccc(Cl)cc2)c1Cl [Compound 198, 4-Amino-3,5-dichloro-6-(4-chlorophenyl)pyridine-2-carboxylic acid]
pest or weed control at 560 ppm [1]: 90%
pest or weed control at 560 ppm [2]: 100%
pest or weed control at 560 ppm [3]: 80%
pest or weed control at 560 ppm [4]: 100%
pest or weed control at 500 ppm [5]: 90%
pest or weed control at 125 ppm [5]: 98%
pest or weed control at 500 ppm [6]: 100%
pest or weed control at 125 ppm [6]: 100%
pest or weed control at 500 ppm [7]: 90%
pest or weed control at 125 ppm [7]: 70%
pest or weed control at 500 ppm [8]: 100%
pest or weed control at 125 ppm [8]: 100%

melting point: 166 to 167 °C (dec.)
SMILES: Nc1c(F)c(C(=O)O)nc(-c2ccccc2Cl)c1F [Compound 202, 4-Amino-3,5-difluoro-6-(6-chlorophenyl)pyridine-2-carboxylic acid]
pest or weed control at 140 ppm [1]: 95%
pest or weed control at 140 ppm [2]: 95%
pest or weed control at 140 ppm [3]: 100%
pest or weed control at 140 ppm [4]: 100%
pest or weed control at 500 ppm [5]: 95%
pest or weed control at 125 ppm [5]: 80%
pest or weed control at 500 ppm [6]: 100%
pest or weed control at 125 ppm [6]: 100%
pest or weed control at 500 ppm [7]: 100%
pest or weed control at 125 ppm [7]: 70%
pest or weed control at 500 ppm [8]: 100%
pest or weed control at 125 ppm [8]: 100%

melting point: 144 to 145 °C
SMILES: Cc1ccc(-c2nc(C(=O)O)c(F)c(N)c2F)cc1 [Compound 203, 4-Amino-3,5-difluoro-6-(4-methylphenyl)pyridine-2-carboxylic acid]
pest or weed control at 140 ppm [1]: 85%
pest or weed control at 140 ppm [2]: 95%
pest or weed control at 140 ppm [3]: 100%
pest or weed control at 140 ppm [4]: 100%
pest or weed control at 500 ppm [5]: 95%
pest or weed control at 500 ppm [6]: 100%
pest or weed control at 500 ppm [7]: 95%
pest or weed control at 500 ppm [8]: 100%

— patent US6784137B2, “6-aryl-4-aminopicolinates and their use as herbicides” (Dow AgroSciences LLC, priority 2001, dated 2004)
